Publication PMC8703884, “Synthesis and Biological Evaluation of S-, O- and Se-Containing Dispirooxindoles” (Molecules, 2021)

What was measured:
[1] = system: A549 human lung adenocarcinoma epithelial cell line; assay: MTT cytotoxicity test, A549; assay type: cell-based; conditions: 72 h incubation
[2] = MTT cytotoxicity test, Hek293T; assay type: cell-based; conditions: human, 72 h incubation
[3] = MTT cytotoxicity test, VA13; assay type: cell-based; conditions: human, VA13 SV40-transformed normal lung fibroblast cells, 72 h incubation
Method: (§1) MTT test. […] Assays were performed in triplicates.

[4] = system: LNCaP human prostate cancer cell line; assay: MTT cytotoxicity test, LNCaP; assay type: cell-based; conditions: for CC50: Homo sapiens, LNCaP, read-out: CC50, LNCaP; for CC50 / CC50, LNCaP / selectivity on LNCaP cells over PC3 cells: MTT test; for selectivity index S for LNCaP/PC3 cells: ratio of CC50 values of the cell line pair
[5] = system: PC3 human prostate cancer cell line; assay: MTT cytotoxicity test, PC3; assay type: cell-based; conditions: for CC50: Homo sapiens
[6] = system: HCT116^+/+ human colon cancer cells (p53 positive); assay: MTT cytotoxicity test, HCT116 p53+/+; conditions: for CC50: Homo sapiens, HCT-116, read-out: CC50, HCT^+/+; for selectivity S against HCT116^+/+ over HCT116^−/−: ratio of CC50 values of the cell line pair
Source text: (§2) The used models included human prostate cancer cell lines LNCaP and PC3, breast cancer cell line (MCF-7), human colon cancer cells (HCT116^+/+, p53 positive, p53^+/+ and HCT116^−/−, p53 negative, p53^−/−), human lung adenocarcinoma epithelial cell line (A549), SV40-transformed normal human lung fibroblast cells (VA13), as well as human embryonic kidney 293 cells (Hek293) stably expressing SV40 large T antigen (Hek293T). The cytotoxicity of the evaluated molecules was properly assessed using a MTT assay based on the modified approach reported by Ferrari and colleagues.
(§3) To further elucidate the dominant mode of action, we used HCT116^+/+ and HCT116^−/− cells by analogy with the paper published by Shangary and colleagues. This isogenic cell line is commonly applied to investigate the p53/MDM2-dependent mode of action.
(§4) MTT test. The MTT assay was carried out according to [35] with few modifications; 3000 Cells (for HEK293T, A549 and MCF7cell lines) or 4000 cells (for VA13 cell line) were seeded in each well of a 96-well plate. […] Assays were performed in triplicates. […] The MTT solution was then discarded and 140 µL of DMSO was added. The plates were swayed on a shaker (60 rpm) to solubilize the formazan. […] The analysis of cytotoxicity and the estimation of IC50 values were carried out with the built-in functions in the GraphPad Prism program (GraphPad Software, Inc., San Diego, CA) P53 activation.

[7] = system: MCF7 breast cancer cell line; assay: MTT cytotoxicity test, MCF7; assay type: cell-based; conditions: Homo sapiens, 72 h incubation
Method: as §1

[8] = system: HCT116^−/− human colon cancer cells (p53 negative); assay: MTT cytotoxicity test, HCT116 p53-/-; conditions: HCT-116, read-out: CC50, HCT^−/−
Source text: as §2, §3, §4

SMILES | CC50 [1] [µM] | CC50 at 72 h [2] [µM] | CC50 at 72 h [3] [µM] | CC50 [4] [µM] | CC50 [5] [µM] | melting point | CC50 [6] [µM] | CC50 [7] [µM] | CC50 [8] [µM] | CC50, LNCaP [4] | CC50, PC3 [5] | selectivity index S for LNCaP/PC3 cells [4] | selectivity S against HCT116^+/+ over HCT116^−/− [6] | selectivity on LNCaP cells over PC3 cells [4]
CN1CC2(NC(=S)N(C3CC3)C2=O)C2(C1)C(=O)Nc1ccccc12 (stereo not shown) [Compound 4s, 1′-Methyl-1-cyclopropyl-2-thioxodispiro[imidazolidine-4,3′-pyrrolidine-4′,3″-indoline]-2″,5-dione] | > 100 | > 100 | > 100 | > 100 | > 100 | 272 to 273 °C (dec.) | > 100 | > 100 | > 100 |  |  |  |  | 
CCOc1ccc(N2C(=O)C3(CN(C)CC34C(=O)Nc3ccc(Cl)cc34)NC2=S)cc1 (stereo not shown) [Compound 4h, 5″-Chloro-1′-methyl-1-(4-ethoxyphenyl)-2-thioxodispiro[imidazolidine-4,3′-pyrrolidine-4′,3″-indoline]-2″,5-dione] | 6.2 ± 2.1 | 6.7 ± 0.9 | 6.3 ± 1.1 | > 100 | > 100 | 268 to 271 °C | > 100 | 8.5 ± 1.2 | > 100 | no activity at all | no activity at all |  |  | 
C=CCN1C(=O)C2(CN(C)CC23C(=O)Nc2ccccc23)NC1=S (stereo not shown) [Compound 4c, 1′-Methyl-1-allyl-2-thioxodispiro[imidazolidine-4,3′-pyrrolidine-4′,3″-indoline]-2″,5-dione] | 45.9 ± 13.4 | 41.8 ± 12.4 | > 100 | 9.8 ± 3.3 | 53.1 ± 15.8 | 281 to 283 °C (dec.) | > 100 | > 100 | 14.3 ± 6.65 |  |  |  |  | 
COc1ccc(N2C(=O)C3(CN(C)CC34C(=O)Nc3ccccc34)NC2=S)cc1 (stereo not shown) [Compound 4e, 1′-Methyl-1-(4-methoxyphenyl)-2-thioxodispiro[imidazolidine-4,3′-pyrrolidine-4′,3″-indoline]-2″,5-dione] | 18.9 ± 3.1 | 6.5 ± 0.9 | 13.2 ± 2.3 | 3.45 ± 0.45 | > 100 | 155 to 156 °C | 27.9 ± 6.94 | 22.8 ± 5.6 | 36 ± 12.6 |  |  | > 30 |  | 
CN1CC2(NC(=S)N(c3ccc(F)c(Cl)c3)C2=O)C2(C1)C(=O)Nc1ccc(Cl)cc12 (stereo not shown) [Compound 4r, 5″-Chloro-1′-methyl-1-(3-chloro-4-fluorophenyl)-2-thioxodispiro[imidazolidine-4,3′-pyrrolidine-4′,3″-indoline]-2″,5-dione] | 14.1 ± 1.8 | 11.1 ± 1.3 | 13.9 ± 1.5 | > 100 | > 100 | 177 to 180 °C | > 100 | 14.1 ± 1.2 | > 100 | absolutely inactive | absolutely inactive |  |  | 
CN1CC2(NC(=S)N(Cc3cccc(Cl)c3)C2=O)C2(C1)C(=O)Nc1ccc(Cl)cc12 (stereo not shown) [Compound 4p, 5″-Chloro-1′-methyl-1-(3-chlorobenzyl)-2-thioxodispiro[imidazolidine-4,3′-pyrrolidine-4′,3″-indoline]-2″,5-dione] | 11.3 ± 2.4 | 18.4 ± 1.7 | 12.3 ± 1.6 | 4.1 ± 0.1 | 2.2 ± 1.4 | 261 to 262 °C | 34.2 ± 5.7 | 6.6 ± 1 | > 100 |  |  |  | > 2.9 | 
CN1CC2(NC(=S)N(c3ccc(Cl)cc3)C2=O)C2(C1)C(=O)Nc1ccc(Cl)cc12 (stereo not shown) [Compound 4l, 5″-Chloro-1′-methyl-1-(4-chlorophenyl)-2-thioxodispiro[imidazolidine-4,3′-pyrrolidine-4′,3″-indoline]-2″,5-dione] | 37 ± 6.5 | 34 ± 3.4 | 30.4 ± 3 | 4.4 ± 0.67 | 2.2 ± 0.7 | 239 to 240 °C | 42.5 ± 9.1 | 19.1 ± 4.1 | 57.1 ± 5.76 |  |  |  |  | 
Cc1ccc(N2C(=O)C3(CN(C)CC34C(=O)Nc3ccccc34)NC2=S)cc1 (stereo not shown) [Compound 4i, 1′-Methyl-1-(p-tolyl)-2-thioxodispiro[imidazolidine-4,3′-pyrrolidine-4′,3″-indoline]-2″,5-dione] | > 100 | > 100 | > 100 | > 100 | > 100 | 155 to 157 °C | > 100 | 88.2 ± 32.2 | > 100 |  |  |  |  | 
CN1CC2(NC(=S)N(Cc3ccccc3)C2=O)C2(C1)C(=O)Nc1ccc(Cl)cc12 (stereo not shown) [Compound 4b, 5″-Chloro-1′-methyl-1-benzyl-2-thioxodispiro[imidazolidine-4,3′-pyrrolidine-4′,3″-indoline]-2″,5-dione] | 9.1 ± 2.2 | 9.5 ± 1.7 | 21.4 ± 1.9 | 10.3 ± 1.1 | 49 ± 12.7 | 152 to 153 °C | 60.7 ± 13.8 | 24.3 ± 2.3 | 30 ± 15.2 |  |  |  |  | moderate selectivity
CN1CC2(NC(=S)N(c3ccccc3)C2=O)C2(C1)C(=O)Nc1ccccc12 (stereo not shown) [Compound 4w, 1′-Methyl-1-phenyl-2-thioxodispiro[imidazolidine-4,3′-pyrrolidine-4′,3″-indoline]-2″,5-dione] | > 100 | 75.1 ± 8.6 | 94.1 ± 19.7 | 9.8 ± 1.8 | 52.2 ± 11.6 | 273 to 274 °C | 54.7 ± 9.5 | 57.9 ± 17.1 | > 100 |  |  | 5.3 | > 4.8 | 
CCOc1ccc(N2C(=O)C3(CN(C)CC34C(=O)Nc3ccccc34)NC2=S)cc1 (stereo not shown) [Compound 4g, 1′-Methyl-1-(4-ethoxyphenyl)-2-thioxodispiro[imidazolidine-4,3′-pyrrolidine-4′,3″-indoline]-2″,5-dione] | 38.2 ± 11.5 | 30.2 ± 8.2 | 73.6 ± 23.4 | > 100 | > 100 | 240 to 241 °C | > 100 | 75.2 ± 29.3 | > 100 |  |  |  |  | 
CN1CC2(NC(=S)N(Cc3ccccc3)C2=O)C2(C1)C(=O)Nc1ccccc12 (stereo not shown) [Compound 4a, 1′-Methyl-1-benzyl-2-thioxodispiro[imidazolidine-4,3′-pyrrolidine-4′,3″-indoline]-2″,5-dione] | 20.3 ± 3.7 | 9.8 ± 1.6 | 16.1 ± 2.5 | 12.5 ± 2.1 | 30.1 ± 9.1 | 189 to 190 °C | 66.2 ± 11.7 | 31.3 ± 6.7 | 40.1 ± 19.1 |  |  |  |  | moderate selectivity
